The structures appear in SMILES notation. Like-named read-outs stand apart in the source and are kept apart here.

Results on 17 molecules are retold here after patent publication US20260206754A1, “HETEROARYL COMPOUNDS FOR THE CONTROL OF INVERTEBRATE PESTS” (priority 2022, published 2026).

What all share (format): in vivo
Series [1] concerns boll weevil (Anthonomus grandis). The series can be described thus: B.2 Boll weevil, 96-well microtiter plate diet test with eggs. As to conditions: for mortality at 2500 ppm: 120 h, egg and larval mortality after 5 days, read-out: mortality in comparison with untreated controls; for mortality at 9.9 ppm: comparative experiment C.9. How it is done: (§1) If not otherwise specified, the test solutions were prepared as follow: The active compound was dissolved at the desired concentration in a mixture of 1:1 (vol:vol) distilled water:acetone. The test solution was prepared on the day of use.
B.2 Boll Weevil (Anthonomus grandis)
For evaluating control of boll weevil (Anthonomus grandis) the test unit consisted of 96-well-microtiter plates containing an insect diet and 5-10 A. grandis eggs.
The compounds were formulated using a solution containing 75% v/v water and 25% v/v DMSO. Different concentrations of formulated compounds were sprayed onto the insect diet at 5 μl, using a custom-built micro atomizer, at two replications.
After application, microtiter plates were incubated at about 25±1° C. and about 75±5% relative humidity for 5 days. Egg and larval mortality was then visually assessed.

Series [2] deals with yellow fever mosquito (Aedes aegypti). The series can be described thus: whole plant or invertebrate. As to conditions: for mortality at 2500 ppm: 48 h, larval mortality after 2 days, read-out: mortality in comparison with untreated controls. How it is done: as §1
B.5 Yellow Fever Mosquito (Aedes aegypti)
For evaluating control of yellow fever mosquito (Aedes aegypti) the test unit consisted of 96-well-microtiter plates containing 200 μl of tap water per well and 5-15 freshly hatched A. aegypti larvae.
The active compounds were formulated using a solution containing 75% (v/v) water and 25% (v/v) DMSO. Different concentrations of formulated compounds or mixtures were sprayed onto the insect diet at 2.5 μl, using a custom-built micro atomizer, at two replications.
After application, microtiter plates were incubated at 281° C., 80±5% RH for 2 days. Larval mortality was then visually assessed.

In series [3] the test system is tobacco budworm (Heliothis virescens). In words: B.1 Tobacco budworm, 96-well microtiter plate diet test with eggs. As to conditions: for mortality at 100 ppm: comparative experiment C.6; for mortality at 2500 ppm: 120 h, egg and larval mortality after 5 days, read-out: mortality in comparison with untreated controls; for mortality at 274 ppm: comparative experiment C.9. How it is done:
as §1
B.1 Tobacco Budworm (Heliothis virescens)
For evaluating control of tobacco budworm (Heliothis virescens) the test unit consisted of 96-well-microtiter plates containing an insect diet and 15-25 H. virescens eggs.
The compounds were formulated using a solution containing 75% v/v water and 25% v/v DMSO. Different concentrations of formulated compounds were sprayed onto the insect diet at 10 μl, using a custom-built micro atomizer, at two replications.
After application, microtiter plates were incubated at about 28±1° C. and about 80±5% relative humidity for 5 days. Egg and larval mortality was then visually assessed.

Series [4] relates to green peach aphid (Myzus persicae). In words: B.6 Green peach aphid, systemic test with artificial diet under membrane. How it is done:
as §1
B.6 Green Peach Aphid (Myzus persicae)
For evaluating control of green peach aphid (Myzus persicae) through systemic means, the test unit consisted of 96-well-microtiter plates containing liquid artificial diet under an artificial membrane.
The compounds were formulated using a solution containing 75% v/v water and 25% v/v DMSO. Different concentrations of formulated compounds were pipetted into the aphid diet, using a custom built pipetter, at two replications.
After application, 5-8 adult aphids were placed on the artificial membrane inside the microtiter plate wells. The aphids were then allowed to suck on the treated aphid diet and incubated at about 23±1° C. and about 50±5% relative humidity for 3 days. Aphid mortality and fecundity was then visually assessed.

Series [5] relates to Southern armyworm (Spodoptera eridania), 2nd instar larvae. In words: B.3 Southern armyworm, 2nd instar larvae, foliar spray on lima bean plants. As to conditions: 96 h, 4 days after treatment, read-out: mortality in comparison with untreated controls. How it is done: B.3 Southern Armyworm (Spodoptera eridania), 2nd Instar Larvae
The active compounds were formulated by a Tecan liquid handler in 100% cyclohexanone as a 10,000-ppm solution supplied in tubes. The 10,000-ppm solution was serially diluted in 100% cyclohexanone to make interim solutions. These served as stock solutions for which final dilutions were made by the Tecan in 50% acetone:50% water (v/v) into 10 or 20 ml glass vials. A non-ionic surfactant (Kinetic@) was included in the solution at a volume of 0.01% (v/v). The vials were then inserted into an automated electrostatic sprayer equipped with an atomizing nozzle for application to plants/insects. Lima bean plants (variety Sieva) were grown 2 plants to a pot and selected for treatment at the 1st true leaf stage. Test solutions were sprayed onto the foliage by an auto-mated electrostatic plant sprayer equipped with an atomizing spray nozzle. The plants were dried in the sprayer fume hood and then removed from the sprayer. Each pot was placed into perforated plastic bags with a zip closure. Ten to 11 armyworm larvae were placed into the bag and the bags zipped closed. Test plants were maintained in a growth room at about 25° C. and about 20-40% relative humidity for 4 days, avoiding direct exposure to fluorescent light (14:10 light:dark photoperiod) to prevent trapping of heat inside the bags. Mortality and reduced feeding were assessed 4 days after treatment, compared to untreated control plants.

Where [6] appears, read: 72 h, aphid mortality after 3 days, read-out: mortality in comparison with untreated controls.
Where [7] appears, read: Anthonomus grandis, 90 ppm, comparative experiment C.7.
Setting [8] is: comparative experiment C.8, read-out: B.6, 2500 ppm (mortality).
Setting [9] is: Anthonomus grandis, 90 ppm, comparative experiment C.8.

Turning to `CC(NC(=O)c1cc(C(F)(F)F)cc(C(F)(F)F)c1)c1nccnc1-n1cc(S(=O)(=O)C(F)(F)F)cn1` (stereo not drawn) [I-55, 3,5-bis(trifluoromethyl)-N-[1-[3-[4-(trifluoromethylsulfonyl)pyrazol-1-yl]pyrazin-2-yl]ethyl]benzamide], the mortality at 2500 ppm in series [1] (Anthonomus grandis), in series [2] and in series [3] was ≥ 75% each time. The same molecule returned a mortality at 90 ppm in series [1] (Anthonomus grandis, 90 ppm, comparative experiment C.6) of 100%. The mortality at 100 ppm in series [3] was 100%.
As for `CC(NC(=O)c1cc(C(F)(F)F)cc(C(F)(F)F)c1)c1nccnc1-n1cc(S(=O)(=O)C(C)C)cn1` (stereo not drawn) [I-67, N-[1-[3-(4-isopropylsulfonylpyrazol-1-yl)pyrazin-2-yl]ethyl]-3,5-bis(tri-fluoromethyl)benzamide], the mortality at 2500 ppm in series [4] (setting [6]), in series [1] (Anthonomus grandis), in series [2] and in series [3] was ≥ 75% throughout.
In the case of `Cc1cnn(-c2nccnc2C(C)NC(=O)c2cc(C(F)(F)F)cc(C(F)(F)F)c2)n1` (stereo not drawn) [WO2021/037614 P1, reference compound], the mortality at 30 ppm in series [4] (comparative experiment C.1) is 25%. The molecule further registered a mortality at 90 ppm in series [3] (comparative experiment C.1) of 25%.
For `CC(C)Sc1cnn(-c2nccnc2C(C)NC(=O)c2cc(C(F)(F)F)cc(C(F)(F)F)c2)c1` (stereo not drawn) [I-48, N-[1-[3-(4-isopropylsulfanylpyrazol-1-yl)pyrazin-2-yl]ethyl]-3,5-bis(trifluoromethyl)benzamide], the mortality at 2500 ppm in series [1] (Anthonomus grandis) and in series [3] was ≥ 75% each time. Further, the mortality at 90 ppm in series [1] (setting [7]) and in series [3] (comparative experiment C.7) was 100% throughout. The mortality at 300 ppm in series [5] is ≥ 75%.
Regarding `CC(NC(=O)c1cc(C(F)(F)F)cc(C(F)(F)F)c1)c1nccnc1-n1cc([S+]([O-])C(C)C)cn1` (stereo not drawn) [I-69, N-[1-[3-(4-isopropylsulfinylpyrazol-1-yl)pyrazin-2-yl]ethyl]-3,5-bis(trifluoromethyl)benzamide], the mortality at 2500 ppm in series [4] (setting [6]), in series [1] (Anthonomus grandis), in series [2] and in series [3] was ≥ 75% in each case.
Molecule `CC(NC(=O)c1cc(Cl)cc(S(C)(=O)=O)c1)c1nccnc1-n1nccn1` (stereo not drawn) [WO2021/259997 I-1, reference compound] returned a mortality at 9.9 ppm in series [1] (Anthonomus grandis) of 0%. In addition, the mortality at 274 ppm in series [3] stood at 0%.
Regarding `CC(NC(=O)c1cc(Cl)cc(S(C)(=O)=O)c1)c1nccnc1-n1ncc(-c2ccccn2)n1` (stereo not drawn) [I-73], the mortality at 2500 ppm in series [4] (setting [6]), in series [1] (Anthonomus grandis), in series [2] and in series [3] was ≥ 75% throughout. Further, in series [1] (Anthonomus grandis), the mortality at 9.9 ppm is 100%. In series [3], this molecule yielded a mortality at 274 ppm of 100%.
For the molecule `CC(NC(=O)c1cc(C(F)(F)F)cc(C(F)(F)F)c1)c1nccnc1-c1cn(-c2ccn(C)n2)nn1` (stereo not drawn) [WO2021/259997 I-12, reference compound], the mortality at 2500 ppm in series [4] (setting [8]) came out at 0%. Further, the mortality at 90 ppm in series [1] (setting [9]) worked out at 0%.
Molecule `CC(NC(=O)c1cc(C(F)(F)F)cc(C(F)(F)F)c1)c1nccnc1-n1cc(C(F)(F)F)cn1` (stereo not drawn) [WO2021/069575 I-92, reference compound] had a mortality at 30 ppm in series [4] (comparative experiment C.4) of 0%. For the same molecule, in series [1] (90 ppm, comparative experiment C.6), the “B.2, 90 ppm (mortality)” value worked out at 0%. The mortality at 90 ppm in series [1] (Anthonomus grandis, 90 ppm, comparative experiment C.4) was found to be 0%; in series [2] (90 ppm, comparative experiment C.4, read-out: B.5, 90 ppm (mortality)), 0%. This molecule yielded a mortality at 100 ppm in series [3] of 50%.
For the molecule `CC(NC(=O)c1cc(C(F)(F)F)cc(C(F)(F)F)c1)c1nccnc1-n1cc(SC(F)(F)F)cn1` (stereo not drawn) [I-60, 3,5-bis(trifluoromethyl)-N-[1-[3-[4-(trifluoromethyl-sulfanyl)pyrazol-1-yl]pyrazin-2-yl]ethyl]benzamide], the mortality at 2500 ppm in series [1] (Anthonomus grandis), in series [2] and in series [3] was ≥ 75% in each case. Moreover, the mortality at 300 ppm in series [5] was ≥ 75%.
As for `CC(NC(=O)c1cc(C(F)(F)F)cc(C(F)(F)F)c1)c1nccnc1-n1cc(S(=O)(=O)C2CC2)cn1` (stereo not drawn) [I-65, N-[1-[3-(4-cyclopropylsulfonylpyrazol-1-yl)pyrazin-2-yl]ethyl]-3,5-bis(trifluoromethyl)benzamide], the mortality at 2500 ppm in series [4] (setting [6]), in series [1] (Anthonomus grandis), in series [2] and in series [3] was ≥ 75% each time.
In the case of `CC(NC(=O)c1cc(C(F)(F)F)cc(C(F)(F)F)c1)c1nccc(F)c1-n1cc(S(C)(=O)=O)cn1` (stereo not drawn) [I-53, N-[1-[4-fluoro-3-(4-methylsulfonylpyrazol-1-yl)-2-pyridyl]ethyl]-3,5-bis(trifluoromethyl)benzamide], the mortality at 2500 ppm in series [1] (Anthonomus grandis), in series [2] and in series [3] was ≥ 75% each time.
With `CC(NC(=O)c1cc(C(F)(F)F)cc(C(F)(F)F)c1)c1nccnc1-n1ncc(-c2ccn(C)n2)n1` (stereo not drawn) [I-29, N-[1-[3-[4-(1-methylpyrazol-3-yl)triazol-2-yl]pyrazin-2-yl]ethyl]-3,5-bis(trifluoromethyl)benzamide], the mortality at 2500 ppm in series [4] (setting [8]) is 100%; in series [4] (setting [6]) it was ≥ 75%; in series [1] (Anthonomus grandis), ≥ 75%; in series [2], ≥ 75%; in series [3], ≥ 75%. The mortality at 90 ppm in series [1] (setting [9]) was 100%.
For the molecule `CC(NC(=O)c1cc(C(F)(F)F)cc(C(F)(F)F)c1)c1nccc(Cl)c1-n1cc([S+](C)[O-])cn1` (stereo not drawn) [I-28, N-[1-[4-chloro-3-(4-methylsulfinylpyrazol-1-yl)-2-pyridyl]ethyl]-3,5-bis(trifluoromethyl)benzamide], the mortality at 2500 ppm in series [4] (setting [6]) and in series [1] (Anthonomus grandis) was ≥ 75% in each case. The mortality at 300 ppm in series [5] is ≥ 75%.
As for `CC(NC(=O)c1cc(C(F)(F)F)cc(C(F)(F)F)c1)c1nccnc1-n1cc(Cl)cn1` (stereo not drawn) [WO2021/069575 I-96, reference compound], the mortality at 2500 ppm in series [4] (comparative experiment C.5, read-out: B.6, 2500 ppm (mortality)) is 0%. In series [1] (Anthonomus grandis, 90 ppm, comparative experiment C.5), this molecule gave a mortality at 90 ppm of 50%. For the same molecule, the mortality at 80 ppm in series [2] (80 ppm, comparative experiment C.5, read-out: B.5, 80 ppm (mortality)) is 0%.
On to `CC[S+]([O-])c1cnn(-c2nccnc2C(C)NC(=O)c2cc(C(F)(F)F)cc(C(F)(F)F)c2)c1` (stereo not drawn) [I-58], for which the mortality at 2500 ppm in series [4] (setting [6]), in series [1] (Anthonomus grandis), in series [2] and in series [3] was ≥ 75% throughout. For the same molecule, the mortality at 90 ppm in series [1] (setting [7]) and in series [3] (comparative experiment C.7) was 100% each time.
Turning to `Cc1cn(-c2nccnc2C(C)NC(=O)c2cc(C(F)(F)F)cc(C(F)(F)F)c2)nn1` (stereo not drawn) [WO2021/037614 P41, reference compound], the mortality at 90 ppm in series [4] (90 ppm, comparative experiment C.3) was 0%. Further, the mortality at 30 ppm in series [1] (Anthonomus grandis, 30 ppm, comparative experiment C.3) was 0%.
